Reference: patent publication US12540131B2 (Merck Sharp & Dohme LLC, priority 2019, dated 2026)

Target: GST tagged truncated human mutant G2019S LRRK2 (Homo sapiens (Human), UniProt Q5S007, G2019S)
Test: LRRK2 Km ATP LanthaScreen Assay
Assay type: biochemical
Conditions: G2019S LRRK2, 134 μM ATP (Km ATP), mean values
Experimental: General Experimental Information: • Unless otherwise noted, all reactions are magnetically stirred. Unless otherwise noted, when diethyl ether is used in the experiments described below, it is Fisher ACS certified material and is stabilized with BHT. Unless otherwise noted, “concentrated” and/or “solvent removed under reduced pressure” means evaporating the solvent from a solution or mixture using a rotary evaporator or vacuum pump. Unless otherwise noted, flash chromatography is carried out on a Teledyne Isco (Lincoln, NE), Analogix (Burlington, WI), or Biotage (Stockholm, SWE) automated chromatography system using a commercially available cartridge as the column. Columns may be purchased from Teledyne Isco, Analogix, Biotage, Varian (Palo Alto, CA), or Supelco (Bellefonte, PA) and are usually filled with silica gel as the stationary phase. Reverse phase prep-HPLC conditions, where used, can be found at the end of each experimental section. Aqueous solutions were concentrated on a Genevac (Ipswich, ENG) or by freeze-drying/lyophilization. Unless otherwise noted, all LRRK2 pIC50 data presented in tables refers to the LRRK2 G2019S Km ATP LanthaScreen™ assay (Life Technologies Corp., Carlsbad, CA) that is described in the Biological Assay section.
The pIC50 values reported herein were measured as follows.
Biological Assay: LRRK2 Km ATP LanthaScreen™ Assay
Compound potency against LRRK2 kinase activity was determined using LanthaScreen™ technology from Life Technologies Corporation (Carlsbad, CA) using a GST20 tagged truncated human mutant G2019S LRRK2 in the presence of the fluorescein-labeled peptide substrate LRRKtide® (LRRK2 phosphorylated ezrin/radixin/moesin (ERM)), also from Life Technologies. The data presented for the Km ATP LanthaScreen™ Assay represents mean IC50 values based on several test results and may have reasonable deviations depending on the specific conditions and reagents used. Km is the Michaelis constant of an enzyme and is defined as the concentration of native substrate (ATP for a kinase) which permits the enzyme to achieve half Vmax (Vmax=rate of reaction when the enzyme is saturated with substrate). IC50 (half-maximal inhibitory concentration) represents the concentration of inhibitor required to inhibit LRRK2 kinase activity by 50%. Assays were performed in the presence of 134 μM ATP (Km ATP). Upon completion, the assay was stopped, and phosphorylated substrate detected with a terbium (Tb)-labeled anti-pERM antibody (cat. no. PV4898). The compound dose response was prepared by diluting a 10 mM stock of compound to a maximum concentration of 9.99 μM in 100% DMSO, followed by custom fold serial dilution in DMSO nine times. 20 nL of each dilution was spotted via a Labcyte Echo onto a 384-well black-sided plate (Corning 3575) followed by 15 μl of a 1.25 nM enzyme solution in 1× assay buffer (50 mM Tris pH 8.5, 10 mM MgCl2, 0.01% Brij-35, 1 mM EGTA, 2 mM dithiothreitol, 0.05 mM sodium orthovanadate). Following a 15-minute incubation period at RT, the kinase reaction was started with the addition of 5 μl of 400 nM fluorescein-labeled LRRKtide® (LRRK2 phosphorylated ezrin/radixin/moesin (ERM)) peptide substrate and 134 μM ATP solution in 1× assay buffer. The reaction was allowed to progress at ambient temperature for 90 minutes. The reaction was then stopped by the addition of 20 μl of TR-FRET Dilution Buffer (Life Technologies, Carlsbad, CA) containing 2 nM Tb-labeled anti-phospho LRRKtide® (LRRK2 phosphorylated ezrin/radixin/moesin (ERM)) antibody and 10 mM EDTA (Life Technologies, Carlsbad, CA). After an incubation period of 1 h at RT, the plate was read on an EnVision® multimode plate reader (Perkin Elmer, Waltham, MA) with an excitation wavelength of 337 nm (Laser) and a reading emission at both 520 and 495 nm. Compound IC50 values were interpolated from nonlinear regression best-fits of the log of the final compound concentration, plotted as a function of the 520/495-nm emission ratio using activity base “Abase”). […]

Sequence of GST tagged truncated human mutant G2019S LRRK2 (Q5S007 970-2527 G2019S): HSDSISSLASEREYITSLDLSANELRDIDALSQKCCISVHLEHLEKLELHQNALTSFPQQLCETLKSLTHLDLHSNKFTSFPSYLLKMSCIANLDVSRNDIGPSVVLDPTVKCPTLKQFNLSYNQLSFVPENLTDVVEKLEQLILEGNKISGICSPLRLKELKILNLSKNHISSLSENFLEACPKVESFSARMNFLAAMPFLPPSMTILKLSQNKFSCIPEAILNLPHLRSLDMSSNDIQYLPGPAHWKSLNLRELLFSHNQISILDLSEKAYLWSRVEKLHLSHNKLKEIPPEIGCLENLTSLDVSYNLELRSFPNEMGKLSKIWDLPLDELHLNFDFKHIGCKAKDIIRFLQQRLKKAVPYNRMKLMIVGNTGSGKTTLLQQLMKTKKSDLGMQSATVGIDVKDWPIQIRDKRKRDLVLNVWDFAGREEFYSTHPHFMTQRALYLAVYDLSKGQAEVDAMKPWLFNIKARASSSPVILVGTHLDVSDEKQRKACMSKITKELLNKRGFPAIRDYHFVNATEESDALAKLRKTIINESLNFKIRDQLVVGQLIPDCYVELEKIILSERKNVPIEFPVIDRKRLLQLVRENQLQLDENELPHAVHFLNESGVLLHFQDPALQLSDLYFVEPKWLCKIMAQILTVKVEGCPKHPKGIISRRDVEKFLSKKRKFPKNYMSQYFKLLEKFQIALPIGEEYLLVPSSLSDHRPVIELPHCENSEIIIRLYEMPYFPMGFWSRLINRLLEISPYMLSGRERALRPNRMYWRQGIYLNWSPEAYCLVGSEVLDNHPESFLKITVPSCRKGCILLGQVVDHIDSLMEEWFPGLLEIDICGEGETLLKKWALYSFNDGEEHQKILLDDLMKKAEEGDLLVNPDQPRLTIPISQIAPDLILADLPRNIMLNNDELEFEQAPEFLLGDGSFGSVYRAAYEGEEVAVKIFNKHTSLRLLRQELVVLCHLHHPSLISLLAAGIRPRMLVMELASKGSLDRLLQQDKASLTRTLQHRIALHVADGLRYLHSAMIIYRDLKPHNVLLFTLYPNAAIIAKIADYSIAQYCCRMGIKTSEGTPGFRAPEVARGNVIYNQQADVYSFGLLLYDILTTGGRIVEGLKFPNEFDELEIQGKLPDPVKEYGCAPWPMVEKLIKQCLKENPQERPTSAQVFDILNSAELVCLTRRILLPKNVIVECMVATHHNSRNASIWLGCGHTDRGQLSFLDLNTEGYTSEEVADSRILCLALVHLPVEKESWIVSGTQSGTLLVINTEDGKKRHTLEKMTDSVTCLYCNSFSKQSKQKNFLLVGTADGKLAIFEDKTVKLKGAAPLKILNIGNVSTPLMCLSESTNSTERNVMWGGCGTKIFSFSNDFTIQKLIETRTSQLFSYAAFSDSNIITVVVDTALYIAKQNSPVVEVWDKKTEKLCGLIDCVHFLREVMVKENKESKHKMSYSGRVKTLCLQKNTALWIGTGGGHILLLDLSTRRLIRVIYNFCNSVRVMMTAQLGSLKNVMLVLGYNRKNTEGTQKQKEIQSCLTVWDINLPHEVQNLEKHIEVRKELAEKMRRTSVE

Row | SMILES | LRRK2 pIC50
1 | N#CC1CCC(N2CC[C@@H](c3cc4nc(Nc5cnn(C6CC6)c5Cl)ncc4cc3Cl)[C@H](F)C2)C1 (single isomer, unassigned) [Ex-4.111, (1R,3S)-3-((3S,4S) or (1S,3R)-3-((3S,4S) or (1R,3R)-3-((3S,4S) or (1S,3S)-3-((3S,4S) or (1R,3S)-3-((3R,4R) or (1S,3R)-3-((3R,4R) or (1R,3R)-3-((3R,4R) or 1S,3S)-3-((3R,4R) 4-(6-chloro-2-((5-chloro-1-cyclopropyl-1H-pyrazol-4-yl)amino)quinazolin-7-yl)-3-fluoropiperidin-1-yl)cyclopentane-1-carbonitrile] | 8.55
2 | O[C@H]1COCC1N1CC[C@@H](c2cc3nc(Nc4cnn(C5CC5)c4Cl)ncc3cc2Cl)[C@H](F)C1 (single isomer, unassigned) [Ex-4.122, (3S,4S)(3S,4S) or (3S,4S)(3R,4R) or (3R,4R)(3S,4S) or (3R,4R)(3R,4R) 4-{6-chloro-2-[(5-chloro-1-cyclopropyl-1H-pyrazol-4-yl)amino]quinazolin-7-yl}-3-fluoropiperidin-1-yl]oxolan-3-ol] | >9.20
3 | CC1(n2ncc(Nc3ncc4cc(Cl)c([C@@H]5CCN(C6COC6)C[C@H]5F)cc4n3)c2Cl)CC1 (single isomer, unassigned) [Ex-4.27, (3S,4S) or (3R,4R) 6-chloro-N-[5-chloro-1-(1-methylcyclopropyl)-1H-pyrazol-4-yl]-7-[3-fluoro-1-(oxetan-3-yl)piperidin-4-yl]quinazolin-2-amine] | >9.20
4 | Cn1nc(C(C)(C)C)cc1Nc1ncc2cc(Cl)c([C@@H]3CCN([C@]4(C)COC[C@@H]4O)C[C@H]3F)cc2n1 (single isomer, unassigned) [Ex-4.245, (3S,4S)(3S,4S) or (3S,4S)(3R,4R) or (3R,4R)(3S,4S) or (3R,4R)(3R,4R) 4-(4-{2-[(3-tert-butyl-1-methyl-1H-pyrazol-5-yl)amino]-6-chloroquinazolin-7-yl}-3-fluoropiperidin-1-yl)-4-methyloxolan-3-ol] | >9.20
5 | CO[C@H]1COC[C@H]1N1CCC(c2cc3nc(Nc4cnn(C5CC5)c4C)ncc3cc2Cl)CC1 (single isomer, unassigned) [Ex-7.5, (3S,4S) or (3R,4R) 6-chloro-N-(1-cyclopropyl-5-methyl-1H-pyrazol-4-yl)-7-[1-(4-methoxyoxolan-3-yl)piperidin-4-yl]quinazolin-2-amine] | >9.20
6 | Cc1c(Nc2ncc3cc(Cl)c(C4CCN(C[C@H](O)c5ccccc5F)CC4)cc3n2)cnn1C1CC1 [Ex-4.203, (1R)-2-(4-{6-chloro-2-[(1-cyclopropyl-5-methyl-1H-pyrazol-4-yl)amino]quinazolin-7-yl}piperidin-1-yl)-1-(2-fluorophenyl)ethan-1-ol] | 8.03

Same assay, conditions: G2019S LRRK2, 134 μM ATP (Km ATP), mean values; read-out: LRRK2 pIC50 (converted)

Row | SMILES | IC50
7 | Cc1c(Nc2ncc3cc(Cl)c(C4CCN(C5COC5)CC4)cc3n2)cnn1C1CCOC1 (single isomer, unassigned) [Ex-2.24, (S) or (R) 6-chloro-N-[5-methyl-1-(oxolan-3-yl)-1H-pyrazol-4-yl]-7-[1-(oxetan-3-yl)piperidin-4-yl]quinazolin-2-amine] | 0.741 nM
8 | C[C@]1(N2CCC(c3cc4nc(Nc5cnn(C67CC(C6)C7)c5)ncc4cc3Cl)CC2)COC[C@H]1O (single isomer, unassigned) [Ex-2.35, (3S,4S) or (3R,4R) 4-[4-(2-{[1-(bicyclo[1.1.1]pentan-1-yl)-1H-pyrazol-4-yl]amino}-6-chloroquinazolin-7-yl)piperidin-1-yl]-4-methyloxolan-3-ol] | 3.89 nM
9 | CC(C)(O)Cn1ncc(Nc2ncc3cc(Cl)c(C4CCN(C5CCOC5)CC4)cc3n2)c1Cl (single isomer, unassigned) [Ex-4.79, (S) or (R) 1-[5-chloro-4-({6-chloro-7-[1-(oxolan-3-yl)piperidin-4-yl]quinazolin-2-yl}amino)-1H-pyrazol-1-yl]-2-methylpropan-2-ol] | < 0.631 nM
